From patent US20240131098A1, “PHARMACEUTICAL COMPOSITION AND HEALTH FUNCTIONAL FOOD CONTAINING EXTRACT OF FRUITING BODY OF GANODERMA LUCIDUM AS ACTIVE INGREDIENT FOR PREVENTION OR TREATMENT OF THROMBOSIS” (Andong National University Industry-Academic Cooperation …, priority 2022, published 2024)

Columns and labels:
blood coagulation factor = assay: aPTT (activated partial thromboplastin time), blood coagulation factor inhibitory activity; assay type: biochemical; details: 1.5 mg/ml; coagulation time of sample added group / DMSO added group
Description: (§1) The blood coagulation inhibitory activity of Ganoderma lucidum fruiting body samples was evaluated according to the previously reported methods (Sohn et al., 2004. Kor. J. Pharmacogn 35. 52-61; Kwon et al., 2004. J Life Science, 14. 509-513; Ryu et al. 2010. J. Life Science, 20. 922-928). For this, thrombin time, prothrombin time and aPT time were measured. For plasma, commercially available control plasma (MD Pacific Technology Co., Ltd, Huayuan Industrial Area, China) was used, and thrombin time, prothrombin time, and aPT time measurements were performed in a manner described below.
aPTT (Activated Partial Thromboplastin Time)
100 μl of plasma and 10 μl of sample extracts of various concentrations were added to the tube of Amelung coagulometer KC-1A (Japan) and warmed at 37° C. for 3 minutes. 50 μl of aPTT reagent (Sigma, ALEXIN™) was added thereto and incubated at 37° C. for 3 minutes. 50 μl of CaCl2 (35 mM) was added, and the time until plasma coagulation was measured. As a solvent control, DMSO was used instead of the sample, and in this case, the coagulation time was 55.1 seconds. The aPTT was expressed with the average of the results of three or more repeated experiments, and the blood coagulation factor inhibitory activity was expressed as the value obtained by dividing the aPTT upon addition of the same by the aPTT time upon addition of the solvent control. […]

thrombin = molecular target: T1, thrombin (Homo sapiens, UniProt P00734); assay: Thrombin time (plasma coagulation, thrombin inhibitory activity); assay type: biochemical; details: 1.5 mg/ml; coagulation time of sample added group / DMSO added group
T1 construct: 50 μl of 0.5 U thrombin (Sigma Co., USA); purchased Sigma Co., USA
Description: as §1
At 37° C., 50 μl of 0.5 U thrombin (Sigma Co., USA), 50 μl of 20 mM CaCl2, and 10 μl of sample extracts of various concentrations were mixed in the tube of Amelung coagulometer KC-1 A (Japan), and reacted for 2 minutes, followed by addition of 100 μl of plasma. After the addition of plasma, the time until plasma coagulation was measured. As a control, aspirin (Sigma Co., USA) was used, and as a solvent control, DMSO was used instead of the sample. […]
The thrombin inhibitory activity was expressed with the average of the results of three or more repeated experiments, and the thrombin inhibitory activity was expressed as the value obtained by dividing the coagulation time upon addition of the sample by the coagulation time upon addition of the solvent control. […]

prothrombin = assay: Prothrombin time (plasma coagulation, prothrombin inhibitory activity); assay type: biochemical; details: 1.5 mg/ml; coagulation time of sample added group / DMSO added group
Description: as §1
70 μl of standard plasma (MD Pacific Co., China) and 10 μl of sample solutions of various concentrations were added to the tube of Amelung coagulometer KC-1A (Japan) and warmed at 37° C. for 3 minutes, followed by addition of 130 μl of PT reagent. After the addition of the PT reagent, the time until coagulation was measured. The time was expressed with the average value of the results of three repeated experiments. As a control, aspirin (Sigma Co., USA) was used, and as a solvent control, DMSO was used instead of the sample. In the case of DMSO, the coagulation time was 18.1 seconds. The prothrombin inhibitory activity was expressed as the value obtained by dividing the coagulation time upon addition of the sample by the coagulation time of the solvent control. […]

human erythrocytes = test system: human erythrocytes
Description: The hemolytic activity was evaluated according to the previous report (Son Ho-yong, 2014. Korean J. Microbiol. Biotechnol. 42: 285-292). Briefly, 100 μl of human red blood cells washed three times with PBS were placed in a 96-well microplate, 100 μl of sample solution of various concentrations was added thereto, the reaction was performed at 37° C. for 30 minutes, and the reaction solution was centrifuged at 1,500 rpm for 10 minutes, 100 μl of the supernatant was transferred to a new microtiter plate, and the degree of hemoglobin leakage due to hemolysis was measured at 414 nm. DMSO (2%) was used as a solvent control for the sample, and Triton X-100 (1 mg/ml) was used as a control for red blood cell hemolysis. Hemolytic activity was calculated using the following formula:
(%)Hemolysis=[(Abs.S−Abs.C)/(Abs.T−Abs.C)]×100 • Abs.S: Absorbance of sample added group • Abs.C: Absorbance of DMSO added group • Abs.T: Absorbance of Triton X-100 added group

Blood coagulation inhibitory activity, Thrombin time (thrombin)	Human erythrocyte coagulation activity(%) (human erythrocytes)	Molecule	Blood coagulation inhibitory activity, aPT time (blood coagulation factor)	Blood coagulation inhibitory activity, Prothrombin time (prothrombin)
1.45 ± 0.02	–	CC(=O)Oc1ccccc1C(=O)O [Aspirin, aspirin]	1.57 ± 0.11	1.40 ± 0.00
–	0.4 ± 0.6%	Triton X-100	–	–
